# Test system: Influenza A/WSN/33-Luciferase virus
# Assay: microbe, parasite or virus in culture
# Type: cell-based
# Conditions: A549, 72 h, luciferase signal three days later, read-out: IC50 antiviral activity (Luciferase reporter assay)
row,SMILES,IC50
1,"CC(O)(CN)Cn1cccc(Nc2nn(-c3ccc(OC(F)(F)F)cc3)c(=O)c3c2CCC3)c1=O (centres unmarked) [Example 166, 1-[[1-(3-Amino-2-hydroxy-2-methyl-propyl)-2-oxo-3-pyridyl]amino]-3-[4-(trifluoromethoxy)phenyl]-6,7-dihydro-5H-cyclopenta[d]pyridazin-4-one]",107 nM
2,"Cn1cccc(Nc2nn(-c3ccc(OC(F)(F)F)cc3)c(=O)c3cc(CN)ccc23)c1=O [Example 143, 7-(Aminomethyl)-4-[(1-methyl-2-oxo-3-pyridyl)amino]-2-[4-(trifluoromethoxy)phenyl]phthalazin-1-one]",271 nM
3,"COC(=O)[C@H]1CCCN1CCn1cccc(Nc2nn(-c3ccc(OC(F)(F)F)cc3)c(=O)c3ccccc23)c1=O [Example 6, methyl (2R)-1-[2-[2-oxo-3-[[4-oxo-3-[4-(trifluoromethoxy)phenyl]phthalazin-1-yl]amino]-1-pyridyl]ethyl]pyrrolidine-2-carboxylate]",52 nM
4,"O=c1c(Nc2nn(-c3ccc(OC(F)(F)F)cc3)c(=O)c3c2CCC3)cccn1CCCO [Example 49, 1-[[1-(3-hydroxypropyl)-2-oxo-3-pyridyl]amino]-3-[4-(trifluoromethoxy)phenyl]-6,7-dihydro-5H-cyclopenta[d]pyridazin-4-one]",16 nM
5,"Cn1cccc(Nc2nn(-c3ccc(OC(F)(F)F)cc3)c(=O)c3c2CCNC3)c1=O [Example 134, 1-[(1-Methyl-2-oxo-3-pyridyl)amino]-3-[4-(trifluoromethoxy)phenyl]-5,6,7,8-tetrahydropyrido[3,4-d]pyridazin-4-one]",521 nM
6,"Cn1cccc(Nc2nn(-c3ccc(OC(F)(F)F)cc3)c(=O)c3c2CCOC3)c1=O [Example 62, 1-[(1-methyl-2-oxo-3-pyridyl)amino]-3-[4-(trifluoromethoxy)phenyl]-7,8-dihydro-5H-pyrano[3,4-d]pyridazin-4-one]",186 nM
7,"Cn1cccc(Nc2nn(-c3ccc(OC(F)(F)F)cc3)c(=O)c3cc(C(N)=O)ccc23)c1=O [Example 139, 1-[(1-Methyl-2-oxo-3-pyridyl)amino]-4-oxo-3-[4-(trifluoromethoxy)phenyl]phthalazine-6-carboxamide]",62 nM
8,"Cn1cccc(Nc2nn(-c3ccc(OC(F)F)cc3)c(=O)c3c2CCCC3)c1=O [Example 27, 2-[4-(difluoromethoxy)phenyl]-4-[(1-methyl-2-oxo-3-pyridyl)amino]-5,6,7,8-tetrahydrophthalazin-1-one]",41 nM
9,"Cc1ccc(Nc2nn(-c3ccc(OC(F)(F)F)cc3)c(=O)c3ccccc23)c(=O)[nH]1 [Example 68, 4-[(6-methyl-2-oxo-1H-pyridin-3-yl)amino]-2-[4-(trifluoromethoxy)phenyl]phthalazin-1-one]",1710 nM
10,"O=C(Cn1cccc(Nc2nn(-c3ccc(OC(F)(F)F)cc3)c(=O)c3ccccc23)c1=O)NCCO [Example 92, N-(2-hydroxyethyl)-2-[2-oxo-3-[[4-oxo-3-[4-(trifluoromethoxy)phenyl]phthalazin-1-yl]amino]-1-pyridyl]acetamide]",178 nM
11,"O=C(O)COCCn1cccc(Nc2nn(-c3ccc(OC(F)(F)F)cc3)c(=O)c3c2CCC3)c1=O [Example 119, 2-[2-[2-oxo-3-[[4-oxo-3-[4-(trifluoromethoxy)phenyl]-6,7-dihydro-5H-cyclopenta[d]pyridazin-1-yl]amino]-1-pyridyl]ethoxy]acetic acid]",3760 nM
12,"CC(=O)N1CCc2c(Nc3cncn(C)c3=O)nn(-c3ccc(OC(F)(F)F)cc3)c(=O)c2C1 [Example 150, 6-Acetyl-1-[(1-methyl-6-oxo-pyrimidin-5-yl)amino]-3-[4-(trifluoromethoxy)phenyl]-7,8-dihydro-5H-pyrido[3,4-d]pyridazin-4-one]",104 nM
13,"CC(=O)N1CCc2c(c(Nc3cncn(C)c3=O)nn(-c3ccc(OC(F)(F)F)cc3)c2=O)C1 [Example 151, 6-Acetyl-4-[(1-methyl-6-oxo-pyrimidin-5-yl)amino]-2-[4-(trifluoromethoxy)phenyl]-7,8-dihydro-5H-pyrido[3,4-d]pyridazin-1-one]",372 nM
14,"Cn1cncc(Nc2nn(-c3ccc(OC(F)(F)F)cc3)c(=O)c3c2CCC3)c1=O [Example 30, 1-[(1-methyl-6-oxo-pyrimidin-5-yl)amino]-3-[4-(trifluoromethoxy)phenyl]-6,7-dihydro-5H-cyclopenta[d]pyridazin-4-one]",37 nM
15,"O=C(O)C1CCCN1CCn1cccc(Nc2nn(-c3ccc(OC(F)(F)F)cc3)c(=O)c3c2CCC3)c1=O (centres unmarked) [Example 121, 1-[2-[2-oxo-3-[[4-oxo-3-[4-(trifluoromethoxy)phenyl]-6,7-dihydro-5H-1-yl]amino]-1-pyridyl]ethyl]pyrrolidine-2-carboxylic acid]",156 nM
16,"CNC(=O)N1CCc2c(c(Nc3cccn(C)c3=O)nn(-c3ccc(OC(F)(F)F)cc3)c2=O)C1 [Example 160, N-Methyl-4-[(1-methyl-2-oxo-3-pyridyl)amino]-1-oxo-2-[4-(trifluoromethoxy)phenyl]-7,8-dihydro-5H-pyrido[3,4-d]pyridazine-6-carboxamide]",86 nM

row,SMILES,IC50
1,"CCN1CCc2c(Nc3cccn(C)c3=O)nn(-c3ccc(OC(F)(F)F)cc3)c(=O)c2C1 [Example 158, 6-Ethyl-1-[(1-methyl-2-oxo-3-pyridyl)amino]-3-[4-(trifluoromethoxy)phenyl]-7,8-dihydro-5H-pyrido[3,4-d]pyridazin-4-one]",105 nM
2,"CN(C)C(=O)C(C)(C)Cn1cccc(Nc2nn(-c3ccc(OC(F)(F)F)cc3)c(=O)c3ccccc23)c1=O [Example 100, N,N,2,2-tetramethyl-3-[2-oxo-3-[[4-oxo-3-[4-(trifluoromethoxy)phenyl]phthalazin-1-yl]amino]-1-pyridyl]propanamide]",36 nM
3,"O=C(Cn1cccc(Nc2nn(-c3ccc(OC(F)(F)F)cc3)c(=O)c3ccccc23)c1=O)N1CCOCC1 [Example 88, 4-[[1-(2-Morpholino-2-oxo-ethyl)-2-oxo-3-pyridyl]amino]-2-[4-(trifluoromethoxy)phenyl]phthalazin-1-one]",23 nM
4,"CNCCn1cncc(Nc2nn(-c3ccc(OC(F)(F)F)cc3)c(=O)c3c2CCC3)c1=O [Example 128, 1-[[1-[2-(Methylamino)ethyl]-6-oxo-pyrimidin-5-yl]amino]-3-[4-(trifluoromethoxy)phenyl]-6,7-dihydro-5H-cyclopenta[d]pyridazin-4-one]",92 nM
5,"COC(=O)Cn1cccc(Nc2nn(-c3ccc(OC(F)(F)F)cc3)c(=O)c3c2CCCC3)c1=O [Example 24, methyl 2-[2-oxo-3-[[4-oxo-3-[4-(trifluoromethoxy)phenyl]-5,6,7,8-tetrahydrophthalazin-1-yl]amino]-1-pyridyl]acetate]",22 nM
6,"CC(C)NC(=O)Cn1cccc(Nc2nn(-c3ccc(OC(F)(F)F)cc3)c(=O)c3ccccc23)c1=O [Example 90, N-isopropyl-2-[2-oxo-3-[[4-oxo-3-[4-(trifluoromethoxy)phenyl]phthalazin-1-yl]amino]-1-pyridyl]acetamide]",162 nM
7,"Cn1cccc(Nc2nn(-c3ccc(C(C)(C)C)nc3)c(=O)c3c2CCC3)c1=O [Example 58, 3-(6-tert-butyl-3-pyridyl)-1-[(1-methyl-2-oxo-3-pyridyl)amino]-6,7-dihydro-5H-cyclopenta[d]pyridazin-4-one]",17 nM
8,"CC(C)(C)OC(=O)N(CCn1cccc(Nc2nn(-c3ccc(OC(F)(F)F)cc3)c(=O)c3c2CCC3)c1=O)CC(=O)O [Example 43, 2-[tert-butoxycarbonyl-[2-[2-oxo-3-[[4-oxo-3-[4-(trifluoromethoxy)phenyl]-6,7-dihydro-5H-cyclopenta[d]pyridazin-1-yl]amino]-1-pyridyl]ethyl]amino]acetic acid]",84 nM
9,"CC(=O)N1CCc2c(Nc3cc(F)cn(C)c3=O)nn(-c3ccc(OC(F)(F)F)cc3)c(=O)c2C1 [Example 87, 6-acetyl-1-[(5-fluoro-1-methyl-2-oxo-3-pyridyl)amino]-3-[4-(trifluoromethoxy)phenyl]-7,8-dihydro-5H-pyrido[3,4-d]pyridazin-4-one]",17 nM
10,"Cn1cc(F)cc(Nc2nn(-c3ccc(OC(F)(F)F)cc3)c(=O)c3c2CCC3)c1=O [Example 31, 1-[(5-fluoro-1-methyl-2-oxo-3-pyridyl)amino]-3-[4-(trifluoromethoxy)phenyl]-6,7-dihydro-5H-cyclopenta[d]pyridazin-4-one]",8 nM
11,"O=C(O)CCCn1cccc(Nc2nn(-c3ccc(OC(F)(F)F)cc3)c(=O)c3c2CCC3)c1=O [Example 118, 4-[2-oxo-3-[[4-oxo-3-[4-(trifluoromethoxy)phenyl]-6,7-dihydro-5H-cyclopenta[d]pyridazin-1-yl]amino]-1-pyridyl]butanoic acid]",953 nM
12,"Cn1cc(Cl)cc(Nc2nn(-c3ccc(OC(F)(F)F)cc3)c(=O)c3c2CCC3)c1=O [Example 33, 1-[(5-chloro-1-methyl-2-oxo-3-pyridyl)amino]-3-[4-(trifluoromethoxy)phenyl]-6,7-dihydro-5H-cyclopenta[d]pyridazin-4-one]",6 nM
13,"O=c1c(Nc2nn(-c3ccc(OC(F)(F)F)cc3)c(=O)c3ccccc23)cccn1CCO [Example 163, 4-[[1-(2-Hydroxyethyl)-2-oxo-3-pyridyl]amino]-2-[4-(trifluoromethoxy)phenyl]phthalazin-1-one]",62 nM
14,"Cn1cccc(Nc2nn(-c3ccc(OC(F)(F)F)cc3)c(=O)c3cc(N)ccc23)c1=O [Example 142, 7-Amino-4-[(1-methyl-2-oxo-3-pyridyl)amino]-2-[4-(trifluoromethoxy)phenyl]phthalazin-1-one]",46 nM
15,"COCCOc1ccc2c(Nc3cccn(C)c3=O)nn(-c3ccc(OC(F)(F)F)cc3)c(=O)c2c1 [Example 137, 7-(2-Methoxyethoxy)-4-[(1-methyl-2-oxo-3-pyridyl)amino]-2-[4-(trifluoromethoxy)phenyl]phthalazin-1-one]",136 nM
16,"Cc1cc(OC(F)(F)F)ccc1-n1nc(Nc2cccn(C)c2=O)c2ccccc2c1=O [Example 7, 4-[(1-methyl-2-oxo-3-pyridyl)amino]-2-[2-methyl-4-(trifluoromethoxy)phenyl]phthalazin-1-one]",4340 nM

# From patent US10597380B2, “Pyridazinone-based broad spectrum anti-influenza inhibitors” (Hoffmann-La Roche Inc., priority 2017, dated 2020)
